In patent publication US12577232B2, “N-heterocycle substituted tryptamine derivatives and methods of using” (ENVERIC B[…] INC., priority 2024, dated 2026):

Legend:
5-HT2A receptor = biological target: T1, 5-HT2A receptor (Homo sapiens, UniProt P28223); assay: Functional cell-based 5-HT2A assay, antagonism mode (CHO-K1/5-HT2A, 100 nM serotonin, calcium flux); settings: CHO-K1/5-HT2A cells, with 100 nM serotonin
T1 construct: purchased PerkinElmer ES-313-M400UA
Description: A variety of 5-HT2A receptor engagement modes have been correlated with positive outcomes in the treatment of neurological disorders. While agonism is associated with a host of favourable effects, antagonizing the 5-HT2A receptor is also an attractive pharmacological approach. For example, antagonism is known to alleviate both dyskinesisa and psychosis in Parkinson's Disorder and holds promise for other psychiatric diseases (Mestre et al., 2013, Expert Opin. Investig. Drugs 22:411-421). Similarly positive outcomes are noted for inverse agonists (Cummings et al., 2014, Lancet, 383:533-540; Roberts, 2006, Curr. Opin. Invest. Drugs 7:653-660). […]
Stimulation of 5-HT2A coupled to the Gq family proteins leads to activation of the phospholipase C (PLC) pathway, ultimately resulting in the accumulation of cytosolic calcium (Cussac et al., Europ. J. Pharmacol., 2008, 594 (1-3), 32-38). […] Kinetic increases in intracellular calcium levels were measured immediately after addition of ligands every 6.4 s for a total of 3 min using the FlexStation 3 multimode microplate reader and SoftMax Pro 7.1 analysis software (Molecular Devices, moleculardevices.com). […] IC50 values were calculated from the normalized data from GraphPad PRISM software. […]

[1] = system: stressed C57BL/6-Elite mice; assay: Mouse sucrose preference (SP) assay to assess antidepressant potential; assay type: in vivo; settings: i.p., psilocin 3 mg/kg, compound (XV) 10 mg/kg; one day after administration
Procedure: Reduced intake of pleasurable substances, e.g., of sucrose water, is a validated behavioral measure of anhedonic/depressive-like state in rodents (Moreau et al., 1992, Eur. Neurpsychopharmocol. 2:43-49; Liu et al., 2018, Nature Protocols 13:1686-1698). […] In the SP assay, cohorts of mice are pre-stressed, leading to a depressed state. The ability of drugs to rescue this state are evaluated.
All animal protocols were approved by the University of Calgary Animal Care and Use Committee. C57BL/6-Elite mixed sex mice were obtained from Charles River Laboratories (Toronto, Canada) at 8-9 weeks old. Mice were maintained on a 12:12 h light/dark schedule (lights on at 07:00 hours) with ad libitum access to food and water and group-housed until 2 days prior to the start of the mild chronic stress paradigm, then mice were single-housed. […]
Mice were introduced to 1% sucrose solution in their drinking water for 24 hrs for 2 days prior to initial sucrose preference testing to reduce impact of novelty. […] The consumption in water, sucrose solution, and total intake of liquids was measured by weighing each bottle before and after the 24-hr experiment. The preference for sucrose was calculated as a percentage of the consumed sucrose solution from the total intake of both water and sucrose solutions. […]

[2] = system: stressed C57BL/6-Elite mice; assay: Mouse marble burying (MB) assay to assess anxiolytic potential; assay type: in vivo; settings: i.p., psilocin 3 mg/kg, compound (XV) 10 mg/kg; vs Vehicle+Stress
Procedure: Marble burying behavior is used to measure the level of anxiety in a rodent when it encounters unfamiliar objects (Deacon, 2006, Nature Protocols 1:122-124). This assay is routinely applied to the study of chronically stressed mice, where drug candidates are evaluated for an ability to diminish stress-induced, anxiety-like behaviours (e.g., Wang et al., ACS Chem. Neurosci. 14:977-987). Positive results in this assay may be interpreted as an indication of therapeutic (anxiolytic) potential in the treatment of various psychiatric disorders. Herein, we applied the marble burying model to investigate whether selected drugs could alleviate anxiety behaviour in stressed mice.
All animal protocols were approved by the University of Calgary Animal Care and Use Committee. C57BL/6-Elite mixed sex mice were obtained from Charles River Laboratories (Toronto, Canada) at 8-9 weeks old. […]
On the testing days, 10 glass marbles (approx. 15 mm in diameter) were evenly spaced on 5 cm of wood-chip bedding (lightly tamped down to make a flat and even surface). […] The number of marbles buried to ⅔rds their depth was measured. Fully buried marbles were counted as 1 and partially (at least ⅔rds) buried marbles were counted as 0.5. […]

T1 sequence (P28223 whole entry): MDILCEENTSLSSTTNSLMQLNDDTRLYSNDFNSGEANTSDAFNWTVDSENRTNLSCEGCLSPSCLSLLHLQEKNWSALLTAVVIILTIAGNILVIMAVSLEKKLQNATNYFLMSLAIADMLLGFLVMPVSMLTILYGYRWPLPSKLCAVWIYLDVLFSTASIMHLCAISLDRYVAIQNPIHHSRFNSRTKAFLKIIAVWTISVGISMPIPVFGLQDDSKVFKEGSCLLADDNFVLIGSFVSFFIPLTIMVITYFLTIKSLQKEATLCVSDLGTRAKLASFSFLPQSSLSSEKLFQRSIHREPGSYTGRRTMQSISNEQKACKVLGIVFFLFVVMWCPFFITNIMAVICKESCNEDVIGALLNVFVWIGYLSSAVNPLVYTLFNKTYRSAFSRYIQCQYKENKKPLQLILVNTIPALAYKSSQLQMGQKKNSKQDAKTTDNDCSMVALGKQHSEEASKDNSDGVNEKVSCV

CN(C)CCc1c[nH]c2cc(F)cc(N3CCOCC3)c12 [Compound (XV)]
engagement at the 5-HT2A receptor, antagonist mode (5-HT2A receptor): antagonism
sucrose preference behaviour in stressed mice vs no drug control [1]: significant preference for sucrose
anxiety-linked (marble burying) behavior in stressed mice [2]: alleviated
